# Literature values in patent publication US6627614B1, “Sequential therapy comprising a 20(S)-camptothecin and an anthracycline” (priority 2002, dated 2003).
# How the values were obtained:
# [1] = system: human colon cancer xenografts
# [2] = system: human tumor xenografts
# [3] = system: various types of cancer, including primary cancer and metastasis; details: patients, oral
# [4] = administered intravenously, patients
# [5] = system: nontumorigenic and tumorigenic human cells
# [6] = not given; remark: listed apart in the source
smiles,measurement,setting,value
"CC[C@@]1(O)C(=O)OCc2c1cc1n(c2=O)Cc2cc3c(N)cccc3nc2-1 [9AC, 9-Amino-20(S)-Camptothecin]",anticancer activity against human colon cancer xenografts,[1],high anticancer activity
"CC[C@@]1(O)C(=O)OCc2c1cc1n(c2=O)Cc2cc3c([N+](=O)[O-])cccc3nc2-1 [9NC, 9-nitrocamptothecin]",activity against human tumor xenograft models,[2]; human tumor xenograft models,high activity
same,growth of human tumor xenografts,[2]; immunodeficient nude mice,inhibited the growth
same,regression of established human tumors,[2]; tumors established as xenografts in nude mice,induced regression
same,tumors known to regress after exposure,[3],"breast carcinoma, ovarian carcinoma, cholangiocarcinoma, monomyelocytic leukemia, and pancreatic carcinoma"
"CC[C@@]1(O)C(=O)OCc2c1cc1n(c2=O)Cc2cc3cc4c(cc3nc2-1)OCO4 [10,11 MD, 10,11-Methylendioxy-20(S)-Camptothecin]",anticancer activity against human colon cancer xenografts,[1],high anticancer activity
"CC[C@@](O)(C(=O)[O-])c1cc2n(c(=O)c1CO)Cc1cc3ccccc3nc1-2.[Na+] [20(S)-camptothecin Na^+, sodium salt of 20(S)-camptothecin]",potency in clinical trials,[4],low potency
same,toxicity in clinical trials,[4],high toxicity
CC[C@@]1(O)C(=O)OCc2c1cc1n(c2=O)Cc2cc3ccccc3nc2-1 [20(S)-camptothecin],effect on nontumorigenic cells,[5]; nontumorigenic human cells in vitro,cytostatic
same,effect on tumorigenic cells,[5]; tumorigenic human cells in vitro,cytotoxic
COc1cccc2c1C(=O)c1c(O)c3c(c(O)c1C2=O)C[C@@](O)(C(=O)CO)C[C@@H]3OC1CC(N)C(O)C(C)O1 (stereo partly shown) [doxorubicin],children with subclinical cardiac dysfunction,"children, long term follow-up",≤ 40%
same,additional toxicity manifested by,patients,"neutropenia, thrombocytopenia, anemia, confusion and hematuria"
same,total cumulative dose at which irreversible cardiac toxicity may occur,patients,~550 mg/M^2
same,crossing of the blood brain barrier,"[6]; human, in vivo",does not cross
same,clearance in patients with impaired hepatic function,[6],reduced
same,dose appearing in the bile,[6]; in 5 days,Approximately 40%
same,systemic clearance in obese women,[6]; obese women with ideal body weight greater than 130%,significantly reduced
same,initial distributive half-life,"[6]; patients, intravenous injection",approximately 5.0 minutes
COc1cccc2c1C(=O)c1c(O)c3c(c(O)c1C2=O)C[C@@](O)([C@@H](O)CO)C[C@@H]3O[C@H]1C[C@H](N)[C@H](O)[C@H](C)O1 [doxorubicinol],clearance in patients with impaired hepatic function,[6],reduced
